Patent US11471448B2 (priority 2020, dated 2022)

Tested on: rat venous stasis model, LPS-induced ARDS
Experiment: Rat venous stasis (Wessler) model after LPS-induced lung injury (ARDS induced thrombosis)
Format: in vivo
Details: 250 mg/kg oral gavage 3, 24, 48, 72 h post LPS instillation; Sprague-Dawley rats; 30 min stasis
Source text: This study assessed the efficacy of ABC294640 to reduce the incidence of adverse thromboembolic events in situ in acute respiratory distress syndrome (ARDS) conditions using a rat venous stasis model. This assay is designed to measure thrombotic risks following LPS-induced lung injury. LPS-induced lung injury is one of the most commonly used rodent models for ARDS and was described to mimic the neutrophilic inflammatory response observed in ARDS patients. The mechanism of LPS-induced ARDS is based on damage to endothelial cells and a systemic inflammatory response. […]
Sprague-Dawley rats (male) weighing between 275 and 400 g were used for this study. […] The body weight was recorded before the instillation and 24, 48 and 72 hours post-instillation.
In this study, ARDS was induced by intratracheal instillation of LPS. […] The segment was then excised and its content scored. […]
• 1. Prior LPS or saline instillation, the functional respiratory parameters of all rat was assessed by whole-body plethysmography and SpO2 was evaluated on conscious rat with a collar probe pulse oximeter. […] The respiratory rate, the Penh and the inspiratory/expiratory time measurements was analyzed. • 2. […]
• 5. Rats were evaluated periodically to ensure animal well-being (general behavior and daily body weight). • 6. […] SpO2 and whole-body plethysmography were also evaluated 24, 48 and 72 hours post-instillation. • 8. […]

SMILES: O=C(NCc1ccncc1)C12CC3CC(C1)CC(c1ccc(Cl)cc1)(C3)C2 [ABC294640, 3-(4-chlorophenyl)-adamantane-1-carboxylic acid (pyridin-4-ylmethyl)amide]
- thrombosis (blood clot length, weight and total thrombus score): reduction of thrombosis
